{"source": "patent US11149316B2", "about": "“Methods for detecting inactivation of the homologous recombination pathway (BRCA1/2) in human tumors” (INSTITUT CURIE, priority 2013, dated 2021)", "test_system": "triple-negative breast tumors", "test": "Cisplatin treatment of patients with triple-negative breast tumors, response by Miller-Payne score (GSE28330; Cisplatin-1 and Cisplatin-2 trials)", "assay_type": "in vivo, human", "description": "Two publically available data sets from clinical trial of Cisplatin treatment of patients with triple-negative breast tumors [GSE28330 GEO database][59] were processed and the number of LST_10 Mb was calculated for each tumor with good quality of measured profile. Genomic profiles were measured by two types of chip: Affymetrix Oncoscan 70K (Dataset 2) and Oncoscan 300K (Dataset 1). Information about mutational status of BRCA1/2 was available for some tumors. Response to treatment was measured by Miller-Payne score, where 4 and 5 were considered as “positive response”, while scores <4 were considered as “no response” [59] Case by case and summary results are presented in Table 2 and Tables 3-5 (statistical comparisons were performed by the Fisher exact test).\n(i) TCGA cohort: 467 tumors with high quality SNP-array profile and available normal/tumor exome sequencing results in variant call format (vcf) from the TCGA Breast Invasive carcinoma dataset were used. (ii) In-house TNBC cohort: a series of 104 TNBC enriched in BRCAi germline mutated cased. (iii) the publically available data from Cisplatin-1 and Cisplatin-2 clinical trials cohorts: 54 TNBCs with suitable quality of Oncoscan (Affymetrix) array profile were obtained from public GEO repository GSE28330 (66).\nHRD is linked to the response to platinum based chemotherapy. Birkbak et al. analyzed SNParray profiles from a series of 79 patients with TNBC, including 28 patients treated by cisplatin prior to surgery (Cisplatin-1 trial) and 51 patients treated with cisplatin in addition to bevacizumab (Cisplatin-2 trial) (59)."}
{"compound": "N.N.[Cl][Pt][Cl]", "note": "[Cisplatin, cisplatin]", "values": [{"measurement": "Non Responders (number of tumors)", "setting": "BRCA1/2 inactivated tumors", "result": 8}, {"measurement": "Responders (number of tumors)", "setting": "BRCA1/2 inactivated tumors", "result": 9}, {"measurement": "Miller Payne Response Score 4 (CR), number of tumors", "setting": "LST^hi tumors", "result": 7}, {"measurement": "Miller Payne Response Score 5 (pCR), number of tumors", "setting": "LST^hi tumors", "result": 11}, {"measurement": "Miller Payne Response Score 4 (CR), number of tumors", "setting": "LST^lo tumors", "result": 1}, {"measurement": "Miller Payne Response Score 5 (pCR), number of tumors", "setting": "LST^lo tumors", "result": 0}, {"measurement": "Non Responders (Miller-Payne 0-3), number of tumors", "setting": "LST_high tumors", "result": 15}, {"measurement": "Responders (Miller-Payne 4-5), number of tumors", "setting": "LST_high tumors", "result": 18}, {"measurement": "Responders (Miller-Payne 4-5), number of tumors", "setting": "LST_high tumors, listed as cisplatin", "result": "18/33"}, {"measurement": "Non Responders (Miller-Payne 0-3), number of tumors", "setting": "LST_low tumors", "result": 20}, {"measurement": "Responders (Miller-Payne 4-5), number of tumors", "setting": "LST_low tumors", "result": 1}, {"measurement": "Responders (Miller-Payne 4-5), number of tumors", "setting": "LST_low tumors, listed as cisplatin", "result": "1/21"}, {"measurement": "Non Responders (number of tumors)", "setting": "NON BRCA1/2 or NA tumors", "result": 27}, {"measurement": "Responders (number of tumors)", "setting": "NON BRCA1/2 or NA tumors", "result": 10}]}
